Test results reported in PMC7848861 (Frontiers in Microbiology, 2021).
Peptide text beside a SMILES is read from it.

Legend:
[1] = test system: primary human macrophages; assay: Toxicity of peptides against macrophages (PrestoBlue); format: cell-based; conditions: three independent experiments
Protocol: Human peripheral blood mononuclear cells (PBMC) were isolated by density gradient centrifugation (Ficoll-Paque™ Plus; GE Healthcare) of buffy coat preparations from anonymous donors (Institute of Transfusion Medicine, Ulm University). Monocytes were isolated from PBMCs by adherence on tissue culture treated plastic flasks (Falcon, Corning, NY, United States). Monocyte-derived macrophages were generated by incubation with granulocyte-macrophage colony-stimulating factor (10 ng/ml; Miltenyi Biotec, Bergisch Gladbach, Germany) in Macrophage-Serum Free Medium (M-SFM; Gibco, ThermoFisher Scientific, Schwerte, Germany) for 6 days.
About 1 × 10^5 macrophages were incubated with peptides for 18 h in a 96-well plate, followed by addition of 10% PrestoBlue™ (Thermo Fisher) for 20 min. The non-fluorescent resazurin-based PrestoBlue is reduced to fluorescent resorufin by mitochondrial enzymes of viable cells ([Xu et al., 2015]). The fluorescence intensity (FI) was measured at λex 560 nm and λem 600 nm using Infinite 200 PRO (Tecan, Männedorf, Suisse) plate reader. Cell viability (%) was calculated using the following formula where the ratio of the FIs of the sample and the untreated control is calculated after subtracting the background FI introduced by the same volume of cell culture medium: [FI (sample)-FI (background)]/[FI (untreated control)-FI (background)] × 100.

[2] = Half-life of Angie1 in human serum; format: in vitro ADME; conditions: human serum (Lonza 14-490E) spiked with 10 μM, 37°C, aliquots 5–120 min, LC-MS (Orbitrap Elite) signal area, triplicates, GraphPad Prism
Protocol: Human serum (14-490E, Lonza, Basel, Switzerland) was spiked with 10 μM Angie1 and incubated at 37°C for 2 h in triplicates. After 5, 10, 20, 30, 45, 60, 90, and 120 min; aliquots (5 μl) were diluted with 1.5 ml ice cold TFA (0.1%). Around 15 μl of each sample was analyzed using an Orbitrap Elite system (Thermo Fisher Scientific) as described above. XCalibur Qual Browser (Thermo Fisher Scientific) was used for visualization of the total ion chromatograms and spectra, as well as for signal area calculation. The theoretical spectrum of Angie1 and its degradation products were generated and the highest intensity signals were used as reference for detecting Angie1 and its degradation products. Plot graphs (signal area vs. time) and half-lives were calculated with GraphPad Prism 8.0 (GraphPad, La Jolla, CA, United States).

[3] = test system: zebrafish embryos; assay: Toxicity against zebrafish embryos; format: in vivo; conditions: 1, 10, and 100 μM, exposure 24 h from 24 hpf, scored at 48 hpf, n = 60 embryos each group
Protocol: Wild-type zebrafish embryos were dechorionated at 24 h post fertilization (hpf) using digestion with 1 mg/ml pronase (Sigma) in E3 medium (83 μM NaCl, 2.8 μM KCl, 5.5 μM CaCl2, and 5.5 μM MgSO4). Embryos were exposed for 24 h, in groups of three, to 100 μl of E3 medium containing Angie1 at 1, 10, and 100 μM. Each concentration was tested in two independent assays, each of which was performed on 10 × 3 embryos. The peptide solvent (PBS), diluted in E3, was used as negative control at the same amount as introduced by the highest peptide concentration. As positive control for acute toxicity/cytotoxicity the pleurocidin antimicrobial peptide NRC-03 ([…]-[…]-NH2) was used at a concentration of 6 μM as described ([Morash et al., 2011]). Abamectin at a concentration of 3.125 μM was used as positive control for neurotoxicity ([Raftery et al., 2014]). At 48 hpf (after 24 h of incubation) embryos were scored in a stereomicroscope for signs of acute toxicity/cytotoxicity (lysis and/or necrosis), developmental toxicity (delay and/or malformations), or cardiotoxicity (heart edema and/or reduced or absent circulation). Each embryo was also touched with a needle and reduced or absent touch response (escape movements) was evaluated as signs of neurotoxicity if and only if no signs of acute toxicity were present in the same embryo. […]

[4] = test system: human macrophages; assay: Uptake by macrophages (flow cytometry, confocal laser microscopy); format: cell-based; conditions: Atto647N-labeled peptide, 54 μM, 18 h, alone or incorporated into liposomes; flow cytometry and confocal microscopy, three donors
Protocol: For investigation of Angie1 internalization, 1 × 10^6 macrophages were incubated with Angie1-Atto647N or Angie1-Atto647N Lip for 18 h. Samples were then analyzed using a FACS Calibur (BD Biosciences) with FlowJo v10.4.1 (BD). For confocal laser microscopy, 0.1 × 10^6 macrophages were seeded in 200 μl M-SFM in an eight-chamber slide (Thermo Fisher) and incubated with Angie1-Atto 647 N (54 μM) or Angie1-Atto 647 N Lip (54 μM) or Angiogenin-Atto647N Lip. After overnight incubation, cells were fixed (4% PFA, Sigma-Aldrich), followed by blocking in 2% BSA. Subsequently macrophages were labeled with major histocompatibility antigen class II antibodies (HLA-DR; 1:200, clone L243, Leinco, St. Louis, MS, United States) detected by Cy2-conjugated goat anti-mouse antibodies (1:200, Dianova, Hamburg, Germany). Cell nuclei were stained with DAPI (1:200, Sigma-Aldrich) diluted in 1% BSA and 0.1% Triton X-100 in PBS (all Sigma-Aldrich). Images were acquired using the inverted laser scanning confocal microscope LSM 710 (Zeiss, Oberkochen, Germany). Image processing was performed using ImageJ software (v 1.52c).

[5] = Solubility in water; format: physicochemical
[6] = test system: Mycobacterium tuberculosis H37Rv (extracellular Mtb); format: cell-based; conditions: 100 μM peptide; 2 × 10^6 Mtb, 96 h incubation, 3H-Uracil uptake vs untreated control; mean ± SD, triplicates of three independent experiments
[7] = test system: intracellular Mtb in primary human macrophages; format: cell-based, Mycobacterium tuberculosis; conditions: 10 μM, 4 days, MOI 5, CFU on 7H11 after 21 days; diluent control 9.5-fold; p < 0.05; six donors
[8] = test system: primary human monocytes or macrophages; assay: Chemotaxis or cytokine release by monocytes or macrophages (not shown); format: cell-based; conditions: data not shown

Compound | Toxicity for primary human macrophages ([1]; Angie1 at 27, 54, or 108 μM, PrestoBlue, 24 h) | Half-life in human serum [2] [min] | half-life at 10 μM [2] [min] | Toxicity to zebrafish embryos (acute/cyto-, cardio-, developmental, neurotoxicity) [3] | Uptake by macrophages [4] | Solubility in water [5] | Antimicrobial activity against extracellular Mtb [6] [%] | Viability of macrophages ([1]; Angiogenin 10 μM, 18 h (legend: 24 h), PrestoBlue resazurin metabolism) | Multiplication of intracellular Mtb (n-fold growth d4 vs d0) [7] [fold] | Induction of chemotaxis or cytokine release [8]
CC[C@H](C)[C@H](NC(=O)[C@H](C)NC(=O)[C@H](CCCCN)NC(=O)[C@@H](NC(=O)[C@H](CO)NC(=O)[C@@H](NC(=O)[C@H](CCCCN)NC(=O)[C@H](CC(N)=O)NC(=O)CNC(=O)[C@H](Cc1c[nH]cn1)NC(=O)[C@@H](NC(=O)[C@H](Cc1ccccc1)NC(=O)[C@@H](NC(=O)[C@H](CC(N)=O)NC(=O)[C@@H](NC(=O)[C@H](C)NC(=O)[C@@H](N)CCCCN)[C@@H](C)CC)[C@@H](C)O)[C@@H](C)CC)[C@@H](C)CC)[C@@H](C)CC)C(=O)O [Angie1] (H-KAINTFIHGNKISIKAI-OH) | not toxic | 3 | 3.06 | no toxicity | equally efficient | soluble in water |  |  |  | 
Angiogenin: endogenous 123 amino acid, 14.1 kDa protein identified in hemofiltrate; tested as synthetic Angiogenin |  |  |  |  |  |  | 94 ± 2 | did not affect the viability | 5.2 | do not induce chemotaxis or cytokine release
